From patent US11040981B2, “Pyrrolotriazine compounds and methods of inhibiting TAM kinases” (Syros Pharmaceuticals, Inc., priority 2017, dated 2021)

Experiments:
MERTK = target: T1, MERTK (Homo sapiens, UniProt Q12866); experiment: TR-FRET kinase activity assay, MERTK; type: biochemical; conditions: for IC50: TR-FRET activity assay, ATP at Km, 60 minutes, read-out: Mer IC50; for FLT3/Mer ratio (FLT3 IC50/Mer IC50): ratio of Mer to FLT3: FLT3 IC50/Mer IC50
T1 sequence (Q12866 21-999): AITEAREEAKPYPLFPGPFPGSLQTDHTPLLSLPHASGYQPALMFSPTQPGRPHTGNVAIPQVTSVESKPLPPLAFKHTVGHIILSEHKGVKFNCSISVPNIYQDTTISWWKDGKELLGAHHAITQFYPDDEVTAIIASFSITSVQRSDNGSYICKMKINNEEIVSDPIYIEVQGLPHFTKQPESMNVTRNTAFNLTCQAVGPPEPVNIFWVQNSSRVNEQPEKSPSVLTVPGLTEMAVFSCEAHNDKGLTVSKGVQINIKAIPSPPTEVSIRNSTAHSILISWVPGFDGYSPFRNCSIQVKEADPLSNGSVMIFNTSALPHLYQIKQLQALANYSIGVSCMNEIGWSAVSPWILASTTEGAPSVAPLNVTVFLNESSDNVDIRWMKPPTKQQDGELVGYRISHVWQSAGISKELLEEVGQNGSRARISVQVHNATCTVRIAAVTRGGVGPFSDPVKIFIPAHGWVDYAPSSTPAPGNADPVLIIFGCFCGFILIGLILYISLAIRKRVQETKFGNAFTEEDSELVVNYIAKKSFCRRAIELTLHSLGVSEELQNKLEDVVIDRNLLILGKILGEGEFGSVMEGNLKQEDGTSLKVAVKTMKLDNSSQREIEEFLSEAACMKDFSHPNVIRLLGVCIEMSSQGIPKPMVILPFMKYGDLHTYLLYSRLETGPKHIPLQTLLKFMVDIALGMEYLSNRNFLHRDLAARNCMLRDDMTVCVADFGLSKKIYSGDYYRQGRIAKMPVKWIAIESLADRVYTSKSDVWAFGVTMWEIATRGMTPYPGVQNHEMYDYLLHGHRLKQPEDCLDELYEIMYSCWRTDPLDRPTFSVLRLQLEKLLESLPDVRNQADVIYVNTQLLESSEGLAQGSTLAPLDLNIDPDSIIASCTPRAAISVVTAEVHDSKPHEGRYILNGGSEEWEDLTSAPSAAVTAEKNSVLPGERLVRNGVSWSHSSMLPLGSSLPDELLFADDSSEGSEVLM
Method in brief: (§1)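 Enzyme + labelled peptide + cpd premixed; ATP at per-enzyme Km starts rxn. 60 min RT, HEPES pH 7.5/MgCl2/EGTA/Brij 35/DTT buffer. Stop 12.5 mM EDTA, Eu phospho-Ab 30 min dark, TR-FRET read → IC50.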

AXL = target: T2, AXL (Homo sapiens, UniProt P30530); experiment: TR-FRET kinase activity assay, AXL; type: biochemical; conditions: ATP at Km, 60 minutes
T2 sequence (P30530 26-894): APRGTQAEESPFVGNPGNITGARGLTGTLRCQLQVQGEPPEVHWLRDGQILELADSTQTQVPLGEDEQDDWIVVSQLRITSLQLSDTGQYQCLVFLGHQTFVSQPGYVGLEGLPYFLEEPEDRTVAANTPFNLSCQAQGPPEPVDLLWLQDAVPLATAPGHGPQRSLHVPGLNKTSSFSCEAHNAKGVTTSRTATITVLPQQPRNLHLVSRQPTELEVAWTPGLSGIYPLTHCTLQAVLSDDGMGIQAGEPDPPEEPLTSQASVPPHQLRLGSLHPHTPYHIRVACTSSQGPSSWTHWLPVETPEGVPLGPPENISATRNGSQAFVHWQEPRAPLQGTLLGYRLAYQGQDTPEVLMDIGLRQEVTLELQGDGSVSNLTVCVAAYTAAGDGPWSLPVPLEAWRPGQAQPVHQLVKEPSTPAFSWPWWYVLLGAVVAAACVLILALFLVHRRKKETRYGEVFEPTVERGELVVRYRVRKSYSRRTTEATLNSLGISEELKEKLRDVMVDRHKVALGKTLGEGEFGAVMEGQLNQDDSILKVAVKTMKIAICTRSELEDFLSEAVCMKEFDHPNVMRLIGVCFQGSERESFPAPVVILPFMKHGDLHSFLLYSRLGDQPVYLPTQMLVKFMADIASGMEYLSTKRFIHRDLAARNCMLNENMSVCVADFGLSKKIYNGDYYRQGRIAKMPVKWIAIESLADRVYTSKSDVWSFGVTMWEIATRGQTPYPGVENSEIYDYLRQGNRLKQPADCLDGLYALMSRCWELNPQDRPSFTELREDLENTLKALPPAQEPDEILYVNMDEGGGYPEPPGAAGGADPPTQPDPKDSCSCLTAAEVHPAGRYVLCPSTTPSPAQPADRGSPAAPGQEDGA
Method in brief: as §1

Row | IC50 (MERTK) | FLT3/Mer ratio (FLT3 IC50/Mer IC50) (MERTK) | IC50 (AXL) | SMILES
1 | ≤ 100 nM | +++ (“+++” represents a ratio of >100) | ≤ 100 nM | COC[C@H](C)Nc1ncc2c(-c3cnn(C4CN(CCC(F)(F)F)C4)c3)cc([C@H]3CC[C@H](O)CC3)n2n1 [Compound 291]
2 | ≤ 100 nM | +++ (“+++” represents a ratio of >100) | ≤ 100 nM | COC[C@H](C)Nc1ncc2c(-c3cnn(Cc4nc(C)no4)c3)cc([C@H]3CC[C@H](O)CC3)n2n1 [Compound 292]
3 | ≤ 100 nM | +++ (“+++” represents a ratio of >100) | ≤ 100 nM | COC[C@H](C)Nc1ncc2c(-c3cnn(C4CN(C(=O)C5COC5)C4)c3)cc([C@H]3CC[C@H](O)CC3)n2n1 [Compound 293]
4 | ≤ 100 nM | +++ (“+++” represents a ratio of >100) | ≤ 100 nM | COC[C@H](C)Nc1ncc2c(-c3cnn(C4CN(C(=O)C5(C(F)(F)F)CC5)C4)c3)cc([C@H]3CC[C@H](O)CC3)n2n1 [Compound 294]
5 | ≤ 100 nM | +++ (“+++” represents a ratio of >100) | ≤ 100 nM | CNC(=O)C(C)(C)n1cc(-c2cc([C@H]3CC[C@H](O)CC3)n3nc(N[C@@H](C)COC)ncc23)cn1 [Compound 295]
6 | ≤ 100 nM | +++ (“+++” represents a ratio of >100) | ≤ 100 nM | C[C@@H](CC(F)(F)F)Nc1ncc2c(-c3cncc(C(=O)O)c3)cc([C@H]3CC[C@H](O)CC3)n2n1 [Compound 298]
7 | ≤ 100 nM | +++ (“+++” represents a ratio of >100) | ≤ 100 nM | CC(CC(F)(F)F)Nc1ncc2c(-c3cnc(C(=O)O)nc3)cc(C3CCC(O)CC3)n2n1 (stereo not drawn) [Compound 299]
8 | ≤ 100 nM | +++ (“+++” represents a ratio of >100) | ≤ 100 nM | COC[C@H](C)Nc1ncc2c(-c3ccc(CN4CCOCC4)cc3)cc([C@H]3CC[C@H](NC(C)=O)CC3)n2n1 [Compound 300, N-((trans)-4-(2-(((S)-1-methoxypropan-2-yl)amino)-5-(4-(morpholinomethyl)phenyl)pyrrolo[2,1-f][1,2,4]triazin-7-yl)cyclohexyl)acetamide]
9 | ≤ 100 nM | +++ (“+++” represents a ratio of >100) | ≤ 100 nM | COC[C@H](C)Nc1ncc2c(-c3ccc(CN4CCOCC4)cc3)cc([C@H]3CC[C@H](NS(C)(=O)=O)CC3)n2n1 [Compound 301]
10 | ≤ 100 nM | +++ (“+++” represents a ratio of >100) | ≤ 100 nM | COC[C@H](C)Nc1ncc2c(-c3cnn(C4CN(CC(F)(F)F)C4)c3)cc([C@H]3CC[C@H](O)CC3)n2n1 [Compound 302]
11 | ≤ 100 nM | +++ (“+++” represents a ratio of >100) | ≤ 100 nM | COC[C@H](C)Nc1ncc2c(-c3cnn(CC4CNC(=O)C4)c3)cc([C@H]3CC[C@H](O)CC3)n2n1 (stereo partly drawn) [Compound 303]
12 | ≤ 100 nM | +++ (“+++” represents a ratio of >100) | ≤ 100 nM | CNC(=O)c1cncc(-c2cc([C@H]3CC[C@H](O)CC3)n3nc(N[C@@H](C)CC(F)(F)F)ncc23)c1 [Compound 304]
13 | ≤ 100 nM | +++ (“+++” represents a ratio of >100) | ≤ 100 nM | COC[C@H](C)Nc1ncc2c(-c3cnn(Cc4cnccn4)c3)cc([C@H]3CC[C@H](O)CC3)n2n1 [Compound 305]
14 | ≤ 100 nM | +++ (“+++” represents a ratio of >100) | ≤ 100 nM | COC[C@H](C)Nc1ncc2c(-c3cnn(Cc4cnc(C)cn4)c3)cc([C@H]3CC[C@H](O)CC3)n2n1 [Compound 306]
15 | ≤ 100 nM | +++ (“+++” represents a ratio of >100) | ≤ 100 nM | CNC(=NC#N)N[C@H]1CC[C@H](c2cc(-c3ccc(CN4CCOCC4)cc3)c3cnc(N[C@@H](C)COC)nn32)CC1 [Compound 307]
16 | ≤ 100 nM | +++ (“+++” represents a ratio of >100) | 100 to 1000 nM | COC[C@H](C)Nc1ncc2c(-c3cc(C)nc(C)c3)cc([C@H]3CC[C@H](O)CC3)n2n1 [Compound 308]
17 | ≤ 100 nM | +++ (“+++” represents a ratio of >100) | ≤ 100 nM | Cc1cc(-c2cc([C@H]3CC[C@H](O)CC3)n3nc(N[C@@H](C)C(F)F)ncc23)ccn1 [Compound 309]
18 | ≤ 100 nM | +++ (“+++” represents a ratio of >100) | ≤ 100 nM | C[C@@H](CC(F)(F)F)Nc1ncc2c(-c3cncc(C(=O)N(C)C)c3)cc([C@H]3CC[C@H](O)CC3)n2n1 [Compound 310]
19 | ≤ 100 nM | +++ (“+++” represents a ratio of >100) | ≤ 100 nM | C[C@@H](CC(F)(F)F)Nc1ncc2c(-c3cncc(C(=O)N4CCOCC4)c3)cc([C@H]3CC[C@H](O)CC3)n2n1 [Compound 311]
20 | ≤ 100 nM | +++ (“+++” represents a ratio of >100) | ≤ 100 nM | Cc1nnc(Cn2cc(-c3cc([C@H]4CC[C@H](O)CC4)n4nc(N[C@@H](C)COC(F)F)ncc34)cn2)o1 [Compound 312]
21 | ≤ 100 nM | +++ (“+++” represents a ratio of >100) | ≤ 100 nM | Cc1cc(-c2cc([C@H]3CC[C@H](O)CC3)n3nc(N[C@@H](C)COC(F)F)ncc23)ccn1 [Compound 313]
22 | ≤ 100 nM | +++ (“+++” represents a ratio of >100) | ≤ 100 nM | COC[C@H](C)Nc1ncc2c(-c3cnn(Cc4ccc(S(C)(=O)=O)cc4)c3)cc([C@H]3CC[C@H](O)CC3)n2n1 [Compound 314]
23 | ≤ 100 nM | +++ (“+++” represents a ratio of >100) | ≤ 100 nM | COC[C@H](C)Nc1ncc2c(-c3cnn([C@@H]4CCNC4=O)c3)cc([C@H]3CC[C@H](O)CC3)n2n1 [Compound 315]

Row | SMILES | IC50 (MERTK) | FLT3/Mer ratio (FLT3 IC50/Mer IC50) (MERTK) | IC50 (AXL)
24 | C[C@@H](CC(F)(F)F)Nc1ncc2c(-c3cnn([C@H]4CCOC4)c3)cc([C@H]3CC[C@H](O)CC3)n2n1 [Compound 290] | ≤ 100 nM | ++ (“++” represents a ratio of between 10 and 100) | ≤ 100 nM
25 | Cc1nnc(Cn2cc(-c3cc([C@H]4CC[C@H](O)CC4)n4nc(N[C@@H](C)CC(F)(F)F)ncc34)cn2)o1 [Compound 296] | ≤ 100 nM | ++ (“++” represents a ratio of between 10 and 100) | ≤ 100 nM
26 | C[C@@H](CC(F)(F)F)Nc1ncc2c(-c3ccc(S(C)(=O)=O)nc3)cc([C@H]3CC[C@H](O)CC3)n2n1 [Compound 297] | ≤ 100 nM | ++ (“++” represents a ratio of between 10 and 100) | ≤ 100 nM
